Experimental data reported in patent US20260297031A1, “HYDROXYLAMINE-BASED BCR-ABL1 INHIBITORS FOR TREATMENT OF CANCER” (University of Georgia Research Foundation, Inc., priority 2023, published 2026).
pIC50: −log10 of the molar value. “Also recorded” adds a separate entry of the source.

Tests used:
mutant BCR-ABL1 = test: KinaseProfiler radiometric kinase assay, mutant BCR-ABL1 kinases as a group; assay type: biochemical, human; settings: read-out: IC50 against (imatinib resistant / relevant) mutant BCR-ABL1 kinases; group of mutants
From the text: Biochemical Human RTK Kinase Enzymatic Radiometric Assay, KinaseProfiler (Independently Performed by Eurofins Cerep SA, FR)

Molt-4 cells = test: In vitro CTG antiproliferative assay, Molt-4; assay type: cell-based
Description: (§1) In Vitro CTG Assay (Independently Performed By: Crown Bioscience, Taicanq, CN)
(§2) Cells listed in the table above were initially harvested during logarithmic growth period followed by re-suspension and counting using a Vi cell counter (cell viability was measured by trypan blue exclusion assay). Cells were then diluted and 90 μL cell suspensions were added to 96-well plates. Plates were then incubated overnight in a humidified incubator at 37° C. with 5% CO2. To(Time 0) plate was then taken by 10 μL of culture medium being added to each well followed by 50 μL CellTiter-Glo® Reagent being added. The contents were then mixed for 2 min on an orbital shake to facilitate cell lysis. Next, the plate was incubated at room temperature for 10 min to stabilize luminescent signal. Blackseal black sticker was placed to the bottom of each plate and the luminescence was recorded using EnVision multi label reader. Test compounds and 10 μL of each 10× compound working solutions was added according to the plate inoculation map. Plates were then placed back into the incubator and after 72 h, 50 μL CellTiter-Glo® was added to each well. Contents were then mixed for 2 min on an orbital shaker to facilitate cell lysis. The plate then was incubated at room temperature for 10 min to stabilize luminescent signal. Blackseal black sticker was placed to the bottom of each plate and the luminescence recorded using EnVision multi label reader.
Relative IC50 was calculated with a dose-response curve fitted using nonlinear regression model with a sigmoidal dose response on GraphPad Prism version 9.5.1. […] The formula for calculating survival rate was (n=3 replicates): […]

SUP-B15 cells = test: In vitro CTG antiproliferative assay, SUP-B15; assay type: cell-based; settings: SUP-B15, 72 h
Description: (§3) Cells listed in the table above were initially harvested during logarithmic growth period followed by re-suspension and counting using a Vi cell counter (cell viability was measured by trypan blue exclusion assay). Cells were then diluted and 90 μL cell suspensions were added to 96-well plates. […] To(Time 0) plate was then taken by 10 μL of culture medium being added to each well followed by 50 μL CellTiter-Glo® Reagent being added. The contents were then mixed for 2 min on an orbital shake to facilitate cell lysis. Next, the plate was incubated at room temperature for 10 min to stabilize luminescent signal. Blackseal black sticker was placed to the bottom of each plate and the luminescence was recorded using EnVision multi label reader. Test compounds and 10 μL of each 10× compound working solutions was added according to the plate inoculation map. […] Contents were then mixed for 2 min on an orbital shaker to facilitate cell lysis. The plate then was incubated at room temperature for 10 min to stabilize luminescent signal. Blackseal black sticker was placed to the bottom of each plate and the luminescence recorded using EnVision multi label reader.

KU812 cells = test: In vitro CTG antiproliferative assay, KU812; assay type: cell-based; settings: KU812, 72 h
Description: as §3

MEG-01 cells = test: In vitro CTG antiproliferative assay, MEG-01; assay type: cell-based; settings: MEG-01, 72 h
Description: as §1
as §2, with “Plates were then placed back into the incubator and after 72 h, 50 μL CellTiter-Glo® was added to each well. Contents were then mixed for 2 min on an orbital shaker to facilitate cell lysis. The plate then was incubated at room temperature for 10 min to stabilize luminescent signal.” left out
Relative IC50 was calculated with a dose-response curve fitted using nonlinear regression model with a sigmoidal dose response on GraphPad Prism version 9.5.1. […]

BCR-ABL1 T315I = target: T1, BCR-ABL1 T315I (Homo sapiens, UniProt P00519, T315I); test: KinaseProfiler radiometric kinase assay, BCR-ABL1 T315I; assay type: biochemical; settings: gatekeeper mutation
T1 construct: BCR (fusion partner, as the printed name BCR-ABL1 says)

CHO-K1 cells = settings: +/− S9; 0.2-500 μM
From the text: High content analysis and fluorescent image analysis were used to detect micronuclei. Cyclophosphamide was the positive control in the presence of metabolic activation by rat liver S9 and mitomycin C was the positive control without metabolic activation by rat liver S9.

Compound: COc1cc(Nc2c(C#N)cnc3cc(OCCON4CCN(C)CC4)c(OC)cc23)c(Cl)cc1Cl [Compound 7, 4-((2,4-dichloro-5-methoxyphenyl)amino)-6-methoxy-7-(2-((4-methylpiperazin-1-yl)oxy)ethoxy)quinoline-3-carbonitrile]
- pIC50 (mutant BCR-ABL1): > 9.00
- pIC50 (Molt-4 cells; Homo sapiens, Molt-4 (BCR-ABL1−), 72 h): < 5.70
- antiproliferative activity, in words (Molt-4 cells; Molt-4, 72 h): minimal activity
- antiproliferative activity, in words (SUP-B15 cells): reduced activity
- antiproliferative activity, in words (KU812 cells): potent antiproliferative activity; also recorded: excellent antiproliferative activity
- antiproliferative activity, in words (MEG-01 cells): potent antiproliferative activity; also recorded: excellent antiproliferative activity
- activity against BCR-ABL1 T315I, in words (BCR-ABL1 T315I): slightly reduced activity
- Micronucleus result (CHO-K1 cells): neither mutagenic nor genotoxic; also recorded: Negative
